Assay results from patent publication US11370801B2, “Pyrrolobenzodiazepine conjugates” (priority 2017, dated 2022).

How the values were obtained:
[1] = tested on: NCI-N87; test: Therapeutic index: MTD in rat / MED in mouse efficacy model; assay type: in vivo; settings: ADC of the drug linker
Procedure: The therapeutic index of each ADC/drug linker was calculated using the following equation: TI=MTD in rat (mg/kg)/MED in mouse efficacy model (mg/kg)

[2] = in vitro cytotoxicity, picomolar region; cited from earlier work

Row | Structure (SMILES) | NCI-N87 MED [1] [mg/kg] | cytotoxic potency relative to DSB-120 [2] [fold]
1 | COc1cc2c(cc1OCCCOc1cc3c(cc1OC)C(=O)N1CCC[C@H]1[C@H](O)N3C(=O)OCc1ccc(NC(=O)[C@H](C)NC(=O)[C@@H](NC(=O)CCOCCOCCOCCOCCOCCOCCOCCOCCNC(=O)CCN3C(=O)C=CC3=O)C(C)C)cc1)N=C[C@@H]1CCCN1C2=O [Compound 1, 4-((2S,5S)-37-(2,5-dioxo-2,5-dihydro-1H-pyrrol-1-yl)-5-isopropyl-2-methyl-4,7,35-trioxo-10,13,16,19,22,25,28,31-octaoxa-3,6,34-triazaheptatriacontanamido)benzyl(11S,11aS)-11-hydroxy-7-methoxy-8-(3-(((S)-7-methoxy-5-oxo-2,3,5,11a-tetrahydro-1H-pyrrolo[2,1-c][1,4]benzodiazepin-8-yl)oxy)propoxy)-5-oxo-2,3,11,11a-tetrahydro-1H-pyrrolo[2,1-c][1,4]benzodiazepine-10(5H)-carboxylate] | 6 | 
2 | COc1cc2c(cc1OCc1cccc(COc3cc4c(cc3OC)C(=O)N3CCC[C@H]3[C@H](O)N4C(=O)OCc3ccc(NC(=O)[C@H](C)NC(=O)[C@@H](NC(=O)CCOCCOCCOCCOCCOCCOCCOCCOCCNC(=O)CCN4C(=O)C=CC4=O)C(C)C)cc3)c1)N=C[C@@H]1CCCN1C2=O [Compound 3, 4-((2S,5S)-37-(2,5-dioxo-2,5-dihydro-1H-pyrrol-1-yl)-5-isopropyl-2-methyl-4,7,35-trioxo-10,13,16,19,22,25,28,31-octaoxa-3,6,34-triazaheptatriacontanamido)benzyl (11S,11aS)-11-hydroxy-7-methoxy-8-((3-((((S)-7-methoxy-5-oxo-2,3,5,11a-tetrahydro-1H-benzo[e]pyrrolo[1,2-a][1,4]diazepin-8-yl)oxy)methyl)benzyl)oxy)-5-oxo-2,3,11,11a-tetrahydro-1H-benzo[e]pyrrolo[1,2-a][1,4]diazepine-10(5H)-carboxylate] | 1 | 
3 | COc1cc2c(cc1OCCCOc1cc3c(cc1OC)C(=O)N1CCC[C@H]1[C@H](O)N3C(=O)OCc1ccc(NC(=O)[C@H](C)NC(=O)[C@@H](NC(=O)CCOCCOCCOCCOCCOCCOCCOCCOCCNC(=O)CCN3C(=O)C=CC3=O)C(C)C)cc1)N=C[C@@H]1CCCN1C2=O [Compound 2, 4-((2S,5S)-37-(2,5-dioxo-2,5-dihydro-1H-pyrrol-1-yl)-5-isopropyl-2-methyl-4,7,35-trioxo-10,13,16,19,22,25,28,31-octaoxa-3,6,34-triazaheptatriacontanamido)benzyl(11S,11aS)-11-hydroxy-7-methoxy-8-(3-(((S)-7-methoxy-5-oxo-2,3,5,11a-tetrahydro-1H-pyrrolo[2,1-c][1,4]benzodiazepin-8-yl)oxy)propoxy)-5-oxo-2,3,11,11a-tetrahydro-1H-pyrrolo[2,1-c][1,4]benzodiazepine-10(5H)-carboxylate] | 2 | 
4 | C=C1C[C@H]2C=Nc3cc(OCCCOc4cc5c(cc4OC)C(=O)N4CC(=C)C[C@H]4C=N5)c(OC)cc3C(=O)N2C1 [SG2000] |  | ~9000
